# Test results as given in patent US6080425A, “Boron compounds and complexes as skin-rejuvenating agents” (TopGene, Inc., priority 1998, dated 2000).
# Entries after “also recorded” stand apart in the source; their conditions may differ.
# Tests used:
# [1] = test system: chick embryo pelvic cartilage; conditions: cited from earlier work
# [2] = test system: cat fleas; conditions: ingestion by cat fleas; cited from earlier work
# [3] = test system: neutrophiles; conditions: intact neutrophiles stimulated by thrombin or leukotriene B4; extracellular addition; cited from earlier work
# [4] = test system: rat cerebral microsomal preparations; conditions: cited from earlier work
# [5] = test system: human platelets; conditions: intact human platelets stimulated by thrombin or leukotriene B4; extracellular addition; cited from earlier work
# [6] = test system: human fibroblasts; assay: H3Proline/H3Leucine incorporation in human fibroblasts (FIG. 5); format: cell-based; conditions: single dose, compared to untreated cells
# [7] = test system: HIV; conditions: cited from earlier work
# [8] = test system: normal human fibroblasts; assay: Cytotoxicity on normal human fibroblasts by MTT assay (FIG. 3); format: cell-based; conditions: 72 hours; for cytotoxic effects (MTT assay), in words: single dose, normal human fibroblasts, FIG. 3: increasing concentrations
# Text: (§1) FIGS. 3-7 illustrate results of experiments designed to elucidate some of the biological properties that may be present in contemplated boron compounds/complexes. In these examples, we studied the action of two boron complexes: sodium fructo-borate (SFB) and sodium salicylato-borate (SSB), upon normal human fibroblasts, in comparison to untreated fibroblasts and ones treated with boric acid (BA, uncomplexed with any ligand). FIG. 3 depicts results of a single dose treatment of human fibroblasts with increasing concentrations of BA, SFB and SSB for 72 hours in order to determine their cytotoxic effects (by MTT assay).
# [9] = test system: normal human fibroblasts; assay: H3Proline incorporation in human fibroblasts (FIG. 4); format: cell-based; conditions: single dose, 72 hours, vs BA, SFB, SSB
# Experimental: FIG. 4 is a graph depicting experimental results of H3Proline incorporation (in human fibroblasts) upon treatment with A, B, and C compared to untreated cells.
# FIG. 4 depicts results from treatment of normal human fibroblasts with a single dose of BA, SFB and SSB for 72 hours, whereupon the final degree of incorporation of H3Proline was determined. The degree of H3Proline incorporation is a measure of the ongoing biosynthesis of collagen in treated cells.
# [10] = test system: normal human fibroblasts; assay: Multi-parameter analysis of biological activity, labeling cells with tritiated Uridine, Thymidine, Leucine and Proline (FIG. 7); format: cell-based; conditions: labeling for 8 hours
# Text: FIG. 7 is a graph depicting a multi-parameter analysis of biological activity of complex B.
# as §1
# FIG. 7 depicts a multi-parameter analysis of biological activity of SFB.
# [11] = test system: normal human fibroblasts; assay: Collagen synthesis: ratio of H3Proline to H3Thymidine incorporation in human fibroblasts (FIG. 6); format: cell-based; conditions: single dose, 72 hours
# Experimental: FIG. 6 is a graph depicting experimental results of increase of collagen synthesis (measured by determination of ratio between incorporation of H3Proline and H3Thymidine) in human fibroblasts by treating them with A, B and C, compared to untreated cells.
# FIG. 6 depicts the results of a single dose treatment of normal human fibroblasts with the selected compounds for 72 hours, in which case the increase of collagen synthesis was calculated by ratio between incorporation of H3Proline over the incorporation of H3Thymidine under the same experimental conditions. In this experiment, SFB was best at the concentration of 1 ug/ml, while at the concentration of 10 ug/ml its activity was next to BA. […] These properties are of special value for skin-rejuvenation purposes.
# [12] = same concentration, great molar excess of glucose in culture medium
compound,measurement,setting,value
"OB(O)O [BA, boric acid]","intracellular synthesis of proteoglycans, collagen and TNF-alpha",[1]; 1-3% aqueous boric acid,strongly decreases
same,"release of proteoglycans, collagen and TNF-alpha into the culture medium",[1]; 1-3% aqueous boric acid,induces release
same,intracellular protein synthesis,[1]; [12],does not decrease
same,protein secretion into the culture medium,[1]; [12],still stimulates
same,larvicidal effects,[2],Larvicidal effects
"NCCOB(c1ccccc1)c1ccccc1 [Example 2-APB, 2-amonoethoxydiphenyl borate]",inhibition of cytosolic Ca rise,[3],inhibited
same,"inhibition of Ins(1,4,5)P3-induced Ca release",[4],inhibited
same,inhibition of cytosolic Ca rise,[5],inhibited
"O=C1O[B-]2(OC(=O)c3ccccc3O2)Oc2ccccc21 [SSB, sodium salicylato-borate]","preferred incorporation of H3Proline over H3Leucine, in words",[6],best performance
CC(C)[C@@H](N)C(=O)O[C@H](C)[C@@H]1C/C=C\CC[C@H](O)C(C)(C)[C@@H]2CC[C@@H](C)[C@@]3(O2)O[B-]24O[C@@H](C(=O)O1)[C@]1(O[C@@H](CC[C@H]1C)C(C)(C)[C@H](O)CCC[C@@H]1C[C@H](OC(=O)[C@@H]3O2)[C@@H](C)O1)O4.[H+] [boromycin],anti-HIV activity,[7],anti-HIV antibiotic
O.O.O.O.O=BOB1OB(OB=O)OB2OB([O-])OB([O-])OB(O1)O2.[Na+].[Na+] [disodium octaborate tetrahydrate],larvicidal effects,[2],Larvicidal effects
"O.O.O.O.O.O.O.O.O.O.[Na+].[Na+].[O-]B1OB2OB([O-])OB(O1)O2 [sodium borate, reference compound]","cytotoxic effects (MTT assay), in words",[8],minimal cytotoxic effects
sodium fructo-borate [SFB],"degree of incorporation of H3Proline (measure of collagen biosynthesis), in words",[9],most beneficial effect
same,fold less toxic than BA (boric acid),"[8]; 100 ug/ml, MTT assay",~4 times
same,"cytotoxic effects (MTT assay), in words",[8],least toxic; also recorded: least toxicity
same,"cytotoxic effects (MTT assay), in words",[8]; listed as sodium fructo-borate,minimal cytotoxic effects
same,"cytotoxic effects (MTT assay), in words",[8]; listed as sodium fructoborate,considerably less toxic than boric acid
same,"preferred incorporation of H3Proline over H3Leucine, in words",[6],quite close
same,"overall effects (tritiated Uridine, Thymidine, Leucine and Proline labeling), in words",[10],quite favorable and beneficial
same,"increase of collagen synthesis (ratio H3Proline/H3Thymidine incorporation), in words",[11]; 1 ug/ml,best
same,"increase of collagen synthesis (ratio H3Proline/H3Thymidine incorporation), in words",[11]; 10 ug/ml,next to BA
